Patent publication US20250129012A1, “ANTI-INFLAMMATORY AND ANALGESIC COMPOUNDS AND USE THEREOF” (JIANGSU ATOM BIOSCIENCE AND PHARMACEUTICAL CO., LTD., priority 2021, published 2025)
Read-outs that look alike come from different tables or passages of the source. Marks after values point to notes of the source that are not given here.

Key:
[1] = tested on: gouty arthritis rats (sodium urate, right ankle and knee joint cavities); assay: Pharmacodynamics experiment B on gouty arthritis rats: gait score; type: in vivo, SD rats; details: for Gait Score: dose 0.6 mg/kg gavage, mean; for Gait versus model group, in words: compounds 0.6 mg/kg, colchicine 0.6 and 1.2 mg/kg
Protocol: (§1) Compounds 12, 16, 19, 30, 34, 36, 38, 40, 44, 48, 49, 52, 58, 69, 83, 98, 102, 119, 121, and 122 were prepared by grinding with 0.5% CMC-Na prior to administration and formulated into suspensions of appropriate concentration (0.12 mg/mL) for gavage, with an administered dose of 0.5 mL/100 g.
(§2) 240 SD rats, males, were acclimatized for one week and weighed 180-220 g. […] The dose of each compound group was 0.6 mg/kg. The compounds in each group were prepared into the corresponding concentration suspension, and the volume of administration was 10 mL/kg.
(§3) 250 mg of sodium urate were added to 9 mL of saline, and 1 mL of Tween-80 solution was added, the resulting mixture was heated and stirred to formulate 10 mL of sodium urate solution. The rats were grasped and fixed, and 0.2 mL of sodium urate solution was injected into the right ankle and knee joint cavities respectively to establish gouty arthritis rat model.
(§4) Before modeling, positive drug and tested compounds were pre-administered for 7 days, once a day, and modeling was performed on day 8, and drug administration by gavage continued for 3 days after modeling.
Gait was scored according to the modified gait grading criteria introduced by Coderre et al. The gait of each rat was observed before and 2 h, 4 h, 8 h, 10 h, 24 h and 48 h after modeling and graded scoring was performed. The gait grading criteria were as follows: 0 point, normal walking; 1 point, slight lameness, the lower limbs were slightly bent; 2 points: moderate lameness, the lower limbs just touched the ground; 3 points, severe lameness, the lower limbs left the ground, and walked on three feet. The mean score of each group was calculated and compared with that of the model group.
(§5) Each experimental data was expressed as the mean, and intergroup comparisons were examined for significance using the ANOVA-Dunnett T-test, with P<0.05 as the significance indicator.

[2] = tested on: gouty arthritis rats (sodium urate, right ankle and knee joint cavities); assay: Pharmacodynamics experiment B on gouty arthritis rats: ankle swelling rate; type: in vivo, SD rats; details: Rattus norvegicus, po, read-out: Swelling rate (ankle)
Protocol: as §1, §2, §3, §4
Before modeling and 2 h, 4 h, 8 h, 10 h, 24 h and 48 h after modeling, the circumference of the right ankle joint was measured using a soft ruler or the volume change at the ankle was measured (volumetric method), and the swelling degree and swelling rate of ankle joint were calculated:
Swelling degree (mm)=measured circumference (mm)−baseline circumference (mm)
Swelling rate (%)=swelling degree (mm)/baseline circumference (mm)×100%
as §5

Compound	Gait Score ([1]; 2 h)	Gait Score ([1]; 4 h)	Gait Score ([1]; 8 h)	Gait Score ([1]; 10 h)	Gait Score ([1]; 24 h)	Gait Score ([1]; 48 h)	Gait versus model group, in words [1]	change in vivo at 0.6 mg/kg ([2]; 2 h)	change in vivo at 0.6 mg/kg ([2]; 4 h)	change in vivo at 0.6 mg/kg ([2]; 8 h)	change in vivo at 0.6 mg/kg ([2]; 10 h)	change in vivo at 0.6 mg/kg ([2]; 24 h)	change in vivo at 0.6 mg/kg ([2]; 48 h)
COc1cc2c(c(OC)c1OC)-c1ccc(N3CCCC3=O)c(=O)cc1[C@@H](NC(C)=O)CC2 [Compound 52, (S)—N-[1,2,3-trimethoxy-9-oxo-10-(2-oxo-pyrrolidin-1-yl)-5,6,7,9-tetrahydrobenzo[a]heptalen-7-yl]acetamide]	0	0	0*	0*	0	0	significant improvement in gait occurred at different time points	11%	9.83%	11.8%	30.2%	22%	7.88%
COc1cc2c(c(OC)c1OC)-c1cc(I)c(OC)c(=O)cc1[C@@H](NC(C)=O)CC2 [Compound 12, (S)—N-(11-iodo-1,2,3,10-tetramethoxy-9-oxo-5,6,7,9-tetrahydrobenzo[a]heptalen-7-yl)acetamide]	0	0	0*	0*	0	0	significant improvement in gait occurred at different time points	10.8%	16.5%	18.7%	31.4%	22.8%	15%
COc1cc2c(c(OC)c1OC)-c1cc(C)c(O[C@H]3CCOC3)c(=O)cc1[C@@H](NC(C)=O)CC2 [Compound 30, N—{(S)-1,2,3-trimethoxy-11-methyl-9-oxo-10-{[(S)-tetrahydrofuran-3-yl]oxy}-5,6,7,9-tetrahydrobenzo[a]heptalen-7-yl}acetamide]	0	0	0*	0*	0.3	0	significant improvement in gait occurred at different time points	-4.04%	1.2%	0.57%	6.69%	9.77%	-1.34%
COc1cc2c(c(OC)c1OC)-c1ccc(OCC(F)(F)F)c(=O)cc1[C@@H](NC(C)=O)CC2 [Compound 36, (S)—N-{1,2,3-trimethoxy-9-oxo-10-(2,2,2-trifluoroethoxy)-5,6,7,9-tetrahydrobenzo[a]heptalen-7-yl}acetamide]	0	0	0*	0*	0.2	0.1	significant improvement in gait occurred at different time points	-3.59%	2.37%	2.62%	10.4%	10%	-2.54%
CNC(=O)c1ccc2c(cc1=O)[C@@H](NC(=O)C1CC1)CCc1cc(OC)c(OC)c(OC)c1-2 [Compound 102, (S)-7-(3-cyclopropylcarbonylamino)-1,2,3-trimethoxy-N-methyl-9-oxo-5,6,7,9-tetrahydrobenzo[a]heptalen-10-carboxamide]	0	0	0.27	0.09*	0	0		14.1%	13.6%	14.4%	19.3%	16.7%	9.4%
COc1cc2c(c(OC)c1OC)-c1cc(C)c(OC)c(=O)cc1[C@@H](NC(C)=O)CC2 [Compound 16, (S)—N-(1,2,3,10-tetramethoxy-11-methyl-9-oxo-5,6,7,9-tetrahydrobenzo[a]heptalen-7-yl)acetamide]	0	0.1	0*	0*	0	0	significant improvement in gait occurred at different time points	9.71%	13%	17.8%	17.4%	18.6%	6.17%
COC(=O)c1cc2c(cc(=O)c1OC)[C@@H](NC(C)=O)CCc1cc(OC)c(OC)c(OC)c1-2 [Compound 40, methyl (S)-7-acetamido-1,2,3,10-tetramethoxy-9-oxo-5,6,7,9-tetrahydrobenzo[a]heptalen-11-carboxylate]	0	0	0*	0*	0.4	0	significant improvement in gait occurred at different time points	5.81%	7.96%	11.2%	9.9%	21.7%	9.33%
COc1cc2c(c(OC)c1OC)-c1ccc(C(=O)N3CCOCC3)c(=O)cc1[C@@H](NC(C)=O)CC2 [Compound 83, (S)—N-{1,2,3-trimethoxy-10-(morpholine-4-carbonyl)-9-oxo-5,6,7,9-tetrahydrobenzo[a]heptalen-7-yl}acetamide]	0	0	0*	0*	0	0	significant improvement in gait occurred at different time points	8.31%	10.4%	16.6%	21.1%	26.3%	15.3%
